Assay type in all cases: cell-based
In experiment [1] the target is T1, T2R10 (TAS2R10) (Homo sapiens, UniProt Q9NYW0).
T1 construct: expressed in transfected cells; host or cells: cells expressing a promiscuous G protein (e.g., G16g44)
T1 sequence (Q9NYW0 1-307): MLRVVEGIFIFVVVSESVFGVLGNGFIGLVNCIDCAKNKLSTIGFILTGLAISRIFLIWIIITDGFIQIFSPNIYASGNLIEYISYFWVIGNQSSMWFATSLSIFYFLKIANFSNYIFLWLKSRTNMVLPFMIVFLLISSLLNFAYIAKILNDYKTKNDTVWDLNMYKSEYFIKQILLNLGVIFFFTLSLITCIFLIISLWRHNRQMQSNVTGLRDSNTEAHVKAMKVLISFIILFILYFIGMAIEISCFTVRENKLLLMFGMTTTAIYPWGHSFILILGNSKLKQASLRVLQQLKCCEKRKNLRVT
In words: FLIPR calcium assay, block of bitter agonist response, T2R10. The settings on record: unsaturated fatty acid concentration of 200 µM, cells stimulated with known bitter agonist, read-out: percentage block of cellular response over baseline, 10. Here is the method:
(§1) Cells expressing a promiscuous […] (e.g., G16g44) were transfected with vectors encoding 18 functional bitter receptor cDNAs, with one receptor per transfection. The cells were transfected directly in 384-well format high-density plates and incubated for 28 hours. Later, cells were loaded with the Ca-specific dye Fluo4-AM. After an incubation of 60 minutes, excess dye is washed off, and cells are stimulated with a known bitter agonist for each receptor and various unsaturated fatty acids. Changes in intracellular fluorescence are recorded using a FLIPR instrument. Bitter antagonists and corresponding receptors are identified based on percentage inhibition of agonist's activity on a given receptor.
(§2) The above protocol was carried out using 16 different unsaturated fatty acids. A particular T2R receptor was identified as being antagonized by a particular unsaturated fatty acid if it triggered a >25% block of agonist's cellular response at 200 μM concentration of unsaturated fatty acid. […] Table 2 indicates the sixteen (16) compounds tested by their compound number from Table 1 above. The 18 bitter taste receptors screened are the human bitter taste receptors we named. T2R01 (TAS2R01), T2R03 (TAS2R03), T2R04 (TAS2R04), T2R07 (TAS2R07), T2R08 (TAS2R08), T2R09 (TAS2R09), T2R10 (TAS2R10), T2R13 (TAS2R13), T2R14 (TAS2R14), T2R16 (TAS2R16), T2R54 (TAS2R39, T2R61 (TAS2R43), T2R63 (TA2R20), T2R64 (TAS2R31), T2R65 (TAS2R19), T2R67 (TAS2R50), T2R71 (TAS2R41), and T2R75 (TAS2R46). The corresponding IUPHAR nomenclature for each receptor is given in parenthesis. In Table 2, these receptors are identified by the last two digits. For example, T2R01 is indicated as 01. Table 2 reports the percentage block of cellular response over baseline at an unsaturated fatty acid concentration of 200 µM.

Experiment [2] deals with T2, T2R08 (TAS2R08) (Homo sapiens, UniProt Q9NYW2).
T2 construct: expressed in transfected cells; host or cells: cells expressing a promiscuous G protein (e.g., G16g44)
T2 sequence (Q9NYW2 1-309): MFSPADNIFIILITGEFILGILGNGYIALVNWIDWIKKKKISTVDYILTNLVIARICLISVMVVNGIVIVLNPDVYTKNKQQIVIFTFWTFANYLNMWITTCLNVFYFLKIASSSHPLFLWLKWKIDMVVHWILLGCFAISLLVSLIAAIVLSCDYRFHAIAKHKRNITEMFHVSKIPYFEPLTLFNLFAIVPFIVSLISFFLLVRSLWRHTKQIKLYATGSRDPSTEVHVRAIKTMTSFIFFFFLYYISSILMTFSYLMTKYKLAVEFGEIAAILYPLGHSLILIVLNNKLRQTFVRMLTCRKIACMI
Put plainly: FLIPR calcium assay, block of bitter agonist response, T2R08. The settings on record: unsaturated fatty acid concentration of 200 µM, cells stimulated with known bitter agonist, read-out: percentage block of cellular response over baseline, 08. Here is the method: as §1, §2

Experiment [3] addresses T3, T2R14 (TAS2R14) (Homo sapiens, UniProt Q9NYV8).
T3 construct: expressed in transfected cells; host or cells: cells expressing a promiscuous G protein (e.g., G16g44)
T3 sequence (Q9NYV8 1-317): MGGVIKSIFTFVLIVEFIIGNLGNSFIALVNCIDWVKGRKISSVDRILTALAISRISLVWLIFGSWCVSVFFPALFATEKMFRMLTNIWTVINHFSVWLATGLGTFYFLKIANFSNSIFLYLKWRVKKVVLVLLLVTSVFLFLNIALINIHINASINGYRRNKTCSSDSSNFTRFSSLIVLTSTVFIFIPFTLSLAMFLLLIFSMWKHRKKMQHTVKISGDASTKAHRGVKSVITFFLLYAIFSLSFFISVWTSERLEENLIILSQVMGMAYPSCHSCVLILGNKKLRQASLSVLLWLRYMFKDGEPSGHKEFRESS
Put plainly: FLIPR calcium assay, block of bitter agonist response, T2R14. The note with it: unsaturated fatty acid concentration of 200 µM, cells stimulated with known bitter agonist, read-out: percentage block of cellular response over baseline, 14. As for the experimental part:
as §1, §2

Experiment [4] has as its target T4, T2R01 (TAS2R01) (Homo sapiens, UniProt Q9NYW7).
T4 construct: expressed in transfected cells; host or cells: cells expressing a promiscuous G protein (e.g., G16g44)
T4 sequence (Q9NYW7 1-299): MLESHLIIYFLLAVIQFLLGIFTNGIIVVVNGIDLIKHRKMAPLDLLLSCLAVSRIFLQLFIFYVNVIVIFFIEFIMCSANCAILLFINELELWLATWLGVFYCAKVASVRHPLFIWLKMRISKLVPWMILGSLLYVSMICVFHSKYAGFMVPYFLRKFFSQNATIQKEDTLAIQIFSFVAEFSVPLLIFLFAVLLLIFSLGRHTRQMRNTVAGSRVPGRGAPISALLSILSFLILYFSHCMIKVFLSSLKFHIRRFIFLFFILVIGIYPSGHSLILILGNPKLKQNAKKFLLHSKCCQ
Put plainly: FLIPR calcium assay, block of bitter agonist response, T2R01. The note with it: unsaturated fatty acid concentration of 200 µM, cells stimulated with known bitter agonist, read-out: percentage block of cellular response over baseline, 01. Here is the method:
as §1, §2

In experiment [5] the target is T5, T2R54 (TAS2R39 (Homo sapiens, UniProt P59534)).
T5 construct: expressed in transfected cells; host or cells: cells expressing a promiscuous G protein (e.g., G16g44)
T5 sequence (P59534 1-338): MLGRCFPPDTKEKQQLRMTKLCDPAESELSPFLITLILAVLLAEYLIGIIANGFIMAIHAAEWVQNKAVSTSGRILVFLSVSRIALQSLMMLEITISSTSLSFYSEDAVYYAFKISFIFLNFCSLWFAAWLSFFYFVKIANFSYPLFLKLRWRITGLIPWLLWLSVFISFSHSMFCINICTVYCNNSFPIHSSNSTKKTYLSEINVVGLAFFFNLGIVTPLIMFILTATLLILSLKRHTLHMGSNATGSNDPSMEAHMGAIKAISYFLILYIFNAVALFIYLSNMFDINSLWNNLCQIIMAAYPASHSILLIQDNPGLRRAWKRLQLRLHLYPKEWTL
Put plainly: FLIPR calcium assay, block of bitter agonist response, T2R54. The settings on record: unsaturated fatty acid concentration of 200 µM, cells stimulated with known bitter agonist. As for the experimental part: as §1, §2

Experiment [6] has as its target T6, T2R75 (TAS2R46) (Homo sapiens, UniProt P59540).
T6 construct: expressed in transfected cells; host or cells: cells expressing a promiscuous G protein (e.g., G16g44)
T6 sequence (P59540 1-309): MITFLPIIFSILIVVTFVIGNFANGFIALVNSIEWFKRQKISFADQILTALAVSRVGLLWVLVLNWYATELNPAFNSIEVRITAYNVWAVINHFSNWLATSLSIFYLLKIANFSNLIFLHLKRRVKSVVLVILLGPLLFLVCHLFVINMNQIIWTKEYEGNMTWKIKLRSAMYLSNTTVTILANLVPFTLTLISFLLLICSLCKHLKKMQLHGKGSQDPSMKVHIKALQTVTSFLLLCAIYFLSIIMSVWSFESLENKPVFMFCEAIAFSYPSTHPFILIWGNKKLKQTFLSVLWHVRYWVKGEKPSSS
Put plainly: FLIPR calcium assay, block of bitter agonist response, T2R75. The settings on record: unsaturated fatty acid concentration of 200 µM, cells stimulated with known bitter agonist. Here is the method: as §1, §2

The structures appear in SMILES notation.

For the compound `CCC/C=C/C(=O)O` [Compound 101], the inhibition at 200 µM in experiment [1] and in experiment [2] was > 25% each time.
With `CCCCCC/C=C/C(=O)O` [Compound 104], the inhibition at 200 µM was > 40% in experiment [3], > 35% in experiment [4], > 60% in experiment [1] and > 40% in experiment [2].
On to `CCCCCCC/C=C/C(=O)O` [Compound 105], for which the inhibition at 200 µM in experiment [3] was 50%; in experiment [4] it was > 60%; in experiment [1], > 95%; in experiment [2], > 55%.
For `CCCCCCCC/C=C/C(=O)O` [Compound 106] the same measures were 80%, 80%, > 95% and > 70%.
For the compound `CCCCCCCCC/C=C/C(=O)O` [Compound 107], the inhibition at 200 µM in experiment [3] is > 90%; in experiment [4], 90%; in experiment [1] it was > 95%; in experiment [2], > 70%.
`C=CCCCCCC(=O)O` [Compound 115]: the inhibition at 200 µM in experiment [1] was > 25%.
`C=CCCCCCCC(=O)O` [Compound 116]: the inhibition at 200 µM is > 25% in experiment [4], > 35% in experiment [1] and > 40% in experiment [2].
As to `C=CCCCCCCCC(=O)O` [Compound 117], the inhibition at 200 µM in experiment [3] is > 25%; in experiment [4], 50%; in experiment [1] it was > 70%; in experiment [2], > 55%. Further, in experiment [5], the “percentage block of cellular response over baseline, 54” value (shortened to “percentage block … 54”) is reported as >80%. Moreover, in experiment [6], the “percentage block of cellular response over baseline, 75” value (“percentage block … 75” below) is 40%.
Consider `C=CCCCCCCCCC(=O)O` [Compound 118], for which the inhibition at 200 µM in experiment [3] was > 65%; in experiment [4] it was > 70%; in experiment [1], > 75%; in experiment [2] it was 65%. In experiment [5], the “percentage block … 54” value was >80%. Further, the “percentage block … 75” value in experiment [6] was found to be 75%.
For the compound `C=CCCCCCCCCCCC(=O)O` [Compound 120], the inhibition at 200 µM in experiment [3] is > 40%; in experiment [4], > 50%; in experiment [1], > 95%; in experiment [2] it was 50%.
With `CC(C)/C=C/CCCCC(=O)O` [Compound 123], the inhibition at 200 µM in experiment [3] is > 25%; in experiment [1] it was > 30%; in experiment [2] it was > 25%.
Regarding `CCCCCC/C=C\CCCC(=O)O` [Compound 124], the inhibition at 200 µM in experiment [3] is > 50%; in experiment [4], 55%; in experiment [1], > 80%; in experiment [2], > 60%.
As for `CC(C)=CCCC(C)CC(=O)O` (stereo not drawn) [Compound 127], the inhibition at 200 µM in experiment [4] is > 30%; in experiment [1], 50%. Further, the “percentage block … 54” value in experiment [5] is on record as >90%. The “percentage block … 75” value in experiment [6] came to 35%.
For the compound `CC(C)=CCCC(C)=CC(=O)O` [Compound 128], the inhibition at 200 µM in experiment [4] is 50%; in experiment [1], > 90%; in experiment [2], > 25%. Further, the “percentage block … 54” value in experiment [5] is on record as >80%. In addition, in experiment [6], the “percentage block … 75” value stood at 40%.
